The source made the active and inactive calls. No cut-off for these calls is given here.
Molecular target: not listed separately
Assay: Inhibition of guinea pig protein-glutamine gamma-glutamyltransferase 2 assessed as fluorescent intensity of monodansyl cadaverine
Set-up: species or system Cavia porcellus

Point of comparison: `COC(=O)C(CSSCC(NCCC(=O)c1ncccn1)C(=O)OC)NCCC(=O)c1ncccn1` (stereo not drawn), IC50 5500 nM. Against it:
- O=C(CCNCCSSCCNCCC(=O)c1cc2ccccc2s1)c1cc2ccccc2s1 — 32-fold lower, 170 nM
- COC(=O)C(CCSSCCC(NCCC(=O)c1cc2ccccc2s1)C(=O)OC)NCCC(=O)c1cc2ccccc2s1 (stereo not drawn) — 46-fold lower, 120 nM
- O=C(CCNCCSSCCNCCC(=O)c1ccsc1)c1ccsc1 — 3.4-fold lower, 1600 nM
- COC(=O)C(CCSSCCC(NCCC(=O)c1sccc1Br)C(=O)OC)NCCC(=O)c1sccc1Br (stereo not drawn) — 17-fold lower, 330 nM
- COC(=O)C(CSSCC(NCCC(=O)c1ncc(C)s1)C(=O)OC)NCCC(=O)c1ncc(C)s1 (stereo not drawn) — within 1.5-fold, 4000 nM
- COC(=O)C(CSSCC(NCCC(=O)c1cccs1)C(=O)OC)NCCC(=O)c1cccs1 (stereo not drawn) — 14-fold lower, 400 nM
- O=C(CCNCCSSCCNCCC(=O)c1ccc2ccccc2c1)c1ccc2ccccc2c1 — 2.8-fold lower, 2000 nM
- COC(=O)C(CSSCC(NCCC(=O)c1ccc(I)s1)C(=O)OC)NCCC(=O)c1ccc(I)s1 (stereo not drawn) — 23-fold lower, 240 nM
- O=C(CCNCCSSCCNCCC(=O)c1ccc(Cl)s1)c1ccc(Cl)s1 — 46-fold lower, 120 nM
- O=C(CCNCCSSCCNCCC(=O)c1ccc(Br)s1)c1ccc(Br)s1 — 46-fold lower, 120 nM
- COC(=O)C(CSSCC(NCCC(=O)c1ccco1)C(=O)OC)NCCC(=O)c1ccco1 (stereo not drawn) — 1.9-fold lower, 2900 nM
- O=C(CCNCCSSCCNCCC(=O)c1sccc1Br)c1sccc1Br — 26-fold lower, 210 nM
- O=C(CCNCCSSCCNCCC(=O)c1cccs1)c1cccs1 — 11-fold lower, 510 nM
- COC(=O)C(CSSCC(NCCC(=O)c1ccc2ccccc2c1)C(=O)OC)NCCC(=O)c1ccc2ccccc2c1 (stereo not drawn) — 3.5-fold higher, 19000 nM
- O=C(CCNCCSSCCNCCC(=O)c1ccco1)c1ccco1 — 13-fold lower, 420 nM
- COC(=O)C(CCSSCCC(NCCC(=O)c1ccc(Cl)s1)C(=O)OC)NCCC(=O)c1ccc(Cl)s1 (stereo not drawn) — 46-fold lower, 120 nM
- COC(=O)C(CCSSCCC(NCCC(=O)c1ccc(Br)s1)C(=O)OC)NCCC(=O)c1ccc(Br)s1 (stereo not drawn) — 56-fold lower, 99 nM
- N#Cc1ccc(C(=O)CCNCCSSCCNCCC(=O)c2ccc(C#N)cc2)cc1 — 5-fold lower, 1100 nM
- COC(=O)C(CSSCC(NCCC(=O)c1ccc(Br)cc1)C(=O)OC)NCCC(=O)c1ccc(Br)cc1 (stereo not drawn) — 2-fold higher, 11000 nM
- O=C(CCNCCSSCCNCCC(=O)c1ccc(I)s1)c1ccc(I)s1 — 32-fold lower, 170 nM
- COC(=O)C(CSSCC(NCCC(=O)c1ccc(Br)s1)C(=O)OC)NCCC(=O)c1ccc(Br)s1 (stereo not drawn) — 31-fold lower, 180 nM
- O=C(CCNCCSSCCNCCC(=O)c1ccccc1)c1ccccc1 — 2.5-fold lower, 2200 nM
- O=C(CCNCCSSCCNCCC(=O)c1cccc(Br)n1)c1cccc(Br)n1 — 2.1-fold lower, 2600 nM
- COC(=O)C(CSSCC(NCCC(=O)c1ccncc1)C(=O)OC)NCCC(=O)c1ccncc1 (stereo not drawn) — 1.6-fold lower, 3400 nM
- COC(=O)C(CSSCC(NCCC(=O)c1sccc1Br)C(=O)OC)NCCC(=O)c1sccc1Br (stereo not drawn) — within 1.5-fold, 5700 nM
- COC(=O)C(CCSSCCC(NCCC(=O)c1ccc(I)s1)C(=O)OC)NCCC(=O)c1ccc(I)s1 (stereo not drawn) — 55-fold lower, 100 nM
- O=C(CCNCCSSCCNCCC(=O)c1ccc(I)cc1)c1ccc(I)cc1 — 6.2-fold lower, 890 nM
- COC(=O)C(CSSCC(NCCC(=O)c1nccs1)C(=O)OC)NCCC(=O)c1nccs1 (stereo not drawn) — 1.8-fold higher, 9700 nM
- COC(=O)C(CSSCC(NCCC(=O)c1cc2ccccc2s1)C(=O)OC)NCCC(=O)c1cc2ccccc2s1 (stereo not drawn) — 6.1-fold lower, 900 nM
- COC(=O)C(CSSCC(NCCC(=O)c1ccc(Cl)s1)C(=O)OC)NCCC(=O)c1ccc(Cl)s1 (stereo not drawn) — 29-fold lower, 190 nM
- COC(=O)C(CCSSCCC(NCCC(=O)c1cccs1)C(=O)OC)NCCC(=O)c1cccs1 (stereo not drawn) — 1.5-fold lower, 3600 nM
- O=C(CCNCCSSCCNCCC(=O)c1ccc(Br)cc1)c1ccc(Br)cc1 — 46-fold lower, 120 nM
- COC(=O)C(CSSCC(NCCC(=O)c1ccc(C#N)cc1)C(=O)OC)NCCC(=O)c1ccc(C#N)cc1 (stereo not drawn) — 4.2-fold lower, 1300 nM
- COC(=O)C(CSSCC(NCCC(=O)c1cccc(Br)n1)C(=O)OC)NCCC(=O)c1cccc(Br)n1 (stereo not drawn) — 5-fold lower, 1100 nM
- O=C(CCNCCSSCCNCCC(=O)c1cccnc1)c1cccnc1 — 3.9-fold lower, 1400 nM
- COC(=O)C(CCSSCCC(NCCC(=O)c1ccc(Br)cc1)C(=O)OC)NCCC(=O)c1ccc(Br)cc1 (stereo not drawn) — 3.4-fold lower, 1600 nM

Organism: Cavia porcellus
Assay: Inhibition of guinea pig protein-glutamine gamma-glutamyltransferase 2-mediated amyloid-beta oligomerization at 0.1 to 10 uM

In the case of `NNC(=O)CSc1nc2sc3c(c2c(=O)n1-c1cccc(F)c1)C(c1ccccc1)CCC3` (stereo not drawn), the inhibition is reported as “Active”.
